Data on 31 molecules can be found in US20210386721A1, “SUBSTITUTED PHENYLPROPENYL PYRIDINE DERIVATIVES, THEIR PREPARATION AND PHARMACEUTICAL APPLICATIONS” (SHANGHAI HAIYAN PHARMACEUTICAL TECHNOLOGY CO., LTD., priority 2019, published 2021).

For orientation: IC50 means the concentration needed to halve the response being measured. Read a low IC50 as higher potency. For orientation: EC50 means the midpoint of the concentration-response curve.

Molecules are shown by their SMILES. Bounds are passed on as bounds.

One assay has as its target T1, PD-1/PD-L1 (Homo sapiens, UniProt Q9NZQ7).
T1 construct: purchased Cisbio 63ADK000CPDPEB
As to the kind of experiment: PD-1/PD-L1 binding assay (HTRF, PPI-HTRF). The following applies: HTRF PD1/PD-L1 binding assay kit; 10 nM Tag1-PD-L1; 25° C. An outline of the steps:
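HTRF binding assay: compound was mixed with tagged proteins at final concentrations of 10 nM Tag1-PD-L1 and 2 nM PD1 for 15 min at 25 °C. Anti-Tag1-Eu³⁺ and anti-Tag2-XL665 antibodies were then added for 16 h at 25 °C. IC50 was derived from the 665/620 nm emission ratio.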
Background: In TR-FRET formats the signal depends on donor and acceptor labels being close together.

Assay [1] deals with Jurkat T(PD1 Luc-)/CHOK1(PDL-1). Nature of the assay: Jurkat T(PD1 Luc-)/CHOK1(PDL-1) cell experiment (luciferase reporter). It is filed as cell-based. The following applies: CHO/PD-L1-OKT3 cells co-cultured with Jurkat/PD1-NFAT-Luc cells for 6 hours; Bio-Glo luciferase signal. As to the method:
Assay 2 Jurkat T(PD1 Luc-)/CHOK1(PDL-1) Cell Experiment
G418, Sangon Biotech #A100859-0001, Cat Number G108BA0003, 5 ml of deionized water being added into each bottle, store at 4° C.
CHO/PD-L1-OKT3 cells (constructed by referring to Promega's PD-1/PD-L1 Blockade Bioassays system) cultured in F-12K medium (containing 10% FBS, 800 ug/ml G418, 400 ug/ml D Hygromycin B) were planted into a 96-well plate at 2×10^4 per well, and incubated for 24 hours at 37° C. and 5% CO2. part of the medium was removed, and the test compound dissolved in DMSO with a final concentration of 1 uM was added, and DMSO at the same concentration was added into the control cells. Jurkat/PD1-NFAT-Luc cells (constructed by referring to Promega's PD-1/PD-L1 Blockade Bioassays system) were added at 5×10^5 per well at the same time, and cultured for 6 hours. The corresponding luciferase signal was detected by Bio-Glo™ (Promega, G7940) reagent. The EC50 of each compound to be tested was calculated through the non-linear regression of XLfit software.

T1 sequence (Q9NZQ7 19-238 limits assumed): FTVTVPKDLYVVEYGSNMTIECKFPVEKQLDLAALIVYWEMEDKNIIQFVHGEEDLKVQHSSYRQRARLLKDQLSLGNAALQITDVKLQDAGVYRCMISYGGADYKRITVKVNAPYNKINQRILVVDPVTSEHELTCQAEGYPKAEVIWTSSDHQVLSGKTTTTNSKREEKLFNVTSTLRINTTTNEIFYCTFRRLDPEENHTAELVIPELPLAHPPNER

Take `COc1cc(/C=C/c2cccc(-c3cccc(-c4nc5c(c(OC)n4)CN(C[C@@H]4CCC(=O)N4)CC5)c3C)c2C)c(C(F)(F)F)cc1CN1CC[C@@H](C(=O)O)C1` [Z-60, (R)-1-(2-methoxy-4-((E)-2-(3′-(4-methoxy-6-(((S)-5-oxopyrrolidin-2-yl)methyl)-5,6,7,8-tetrahydropyrido[4,3-d]pyrimidin-2-yl)-2,2′-dimethyl-[1,1′-biphenyl]-3-yl)vinyl)-5-(trifluoromethyl)benzyl) pyrrolidine-3-carboxylic Acid]: the 50% inhibitory concentration (IC50) at PD-1/PD-L1 stood at 2 nM. The same molecule returned an EC50 in assay [1] of 79 nM.
In turn, `COc1cc(/C=C/c2nccc(-c3cccc(NC(=O)c4ccc(CN5CC[C@@H](O)C5)cn4)c3C)c2C#N)c(C(F)(F)F)cc1CN1CC[C@@H](C(=O)O)C1` [Z-74] yielded an IC50 on PD-1/PD-L1 of 1 nM. In addition, a half-maximal effect in assay [1] (EC50) was put at 51 nM.
The molecule `Cc1cc(/C=C/c2nccc(-c3cccc(NC(=O)c4ccc(CN5CC[C@@H](O)C5)cn4)c3Cl)c2C)c(Cl)cc1CN1CC[C@@H](C(=O)O)C1` [Z-76] showed an IC50 at PD-1/PD-L1 of 1 nM. This molecule yielded an EC50 in assay [1] of 361 nM.
For `COc1cc(/C=C/c2cccc(-c3cccc(NC(=O)c4ccc(CN5CC[C@@H](O)C5)cn4)c3Cl)c2C)c(C(F)(F)F)cc1CN1CC[C@@H](C(=O)O)C1` [Z-80], at PD-1/PD-L1, the IC50 worked out at 1 nM. This molecule also displayed a half-maximal effective concentration (EC50) in assay [1] of 36 nM.
On the same counts, the results for `Cc1cc(/C=C/c2nccc(-c3cccc(NC(=O)c4ccc(CN5CC[C@@H](O)C5)cn4)c3Cl)c2C#N)c(Cl)cc1CN1CCCC[C@H]1C(=O)O` [Z-81] are 1 nM and 44 nM.
In turn, `COc1cc(/C=C/c2cccc(-c3cccc(NC(=O)c4ccc(CN5CC[C@@H](O)C5)cn4)c3Cl)c2C)c(C(F)(F)F)cc1CN1CCCC[C@H]1C(=O)O` [Z-82] came in with an IC50 at PD-1/PD-L1 of 1 nM. Also, in assay [1], it took 29 nM to reach a half-maximal effect (EC50).
On the same counts, the results for `Cc1cc(/C=C/c2nccc(-c3cccc(NC(=O)c4ccc(CN5CC[C@@H](O)C5)cn4)c3C)c2Cl)c(Cl)cc1CN1CCCC[C@H]1C(=O)O` [Z-83] are 1 nM and 113 nM.
On the same counts, the results for `COc1cc(/C=C/c2cccc(-c3cccc(NC(=O)c4ccc(CN5CC[C@@H](O)C5)cn4)c3C)c2C)c(C(F)(F)F)cc1CN1CC[C@@H](C(=O)O)C1` [Z-84] are 1 nM and 25 nM.
On the same counts, the results for `COc1cc(/C=C/c2cccc(-c3cccc(NC(=O)c4ccc(CN5CC[C@@H](O)C5)cn4)c3C)c2Cl)c(C(F)(F)F)cc1CN1CC[C@@H](C(=O)O)C1` [Z-85] are 1 nM and 34 nM.
On PD-1/PD-L1, `Cc1cc(/C=C/c2cccc(-c3cccc(NC(=O)c4ccc(CN5CC[C@@H](O)C5)cn4)c3C)c2C)c(Cl)cc1CN1CC[C@@H](C(=O)O)C1` [Z-86] yielded a concentration for half-maximal inhibition (IC50) of 1 nM. Further, the 50% effective concentration (EC50) in assay [1] was 38 nM.
Molecule `COc1cc(/C=C/c2cccc(-c3cccc(NC(=O)c4ccc(CN5CC[C@@H](O)C5)cn4)c3Cl)c2C)c(C(F)(F)F)cc1CN1CCC(C)(C(=O)O)C1` (stereo partly drawn) [Z-87, 1-(4-((E)-2-(2′-chloro-3′-(5-(((R)-3-hydroxypyrrolidin-1-yl)methyl)picolinamido)-2-methyl-[1,1′-biphenyl]-3-yl)vinyl)-2-methoxy-5-(trifluoromethyl)benzyl)-3-methylpyrrolidine-3-carboxylic Acid] gave an IC50 at PD-1/PD-L1 of 1 nM. In assay [1], this molecule registered an EC50 of 26 nM.
`COc1cc(/C=C/c2cccc(-c3cccc(NC(=O)c4ccc(CN5CC[C@@H](O)C5)cn4)c3Cl)c2C)c(C(F)(F)F)cc1CN1CCC(C(=O)O)CC1` [Z-89] gave a half-maximal inhibitory concentration (IC50) on PD-1/PD-L1 of 1 nM. Also, in assay [1], the EC50 was 16 nM.
On the same counts, the results for `Cc1cc(/C=C/c2cccc(-c3cccc(NC(=O)c4ccc(CN5CC[C@@H](O)C5)cn4)c3C)c2C)c(C(F)(F)F)cc1CN1CC[C@@H](C(=O)O)C1` [Z-90] are 1 nM and 24 nM.
On the same counts, the results for `Cc1cc(/C=C/c2cccc(-c3cccc(NC(=O)c4ccc(CN5CC[C@@H](O)C5)cn4)c3C)c2C)c(C2CC2)cc1CN1CC[C@@H](C(=O)O)C1` [Z-91] are 1 nM and 147 nM.
On to `COc1cc(/C=C/c2cccc(-c3cccc(NC(=O)c4ccc(CN5CC[C@@H](O)C5)cn4)c3Cl)c2C)c(C(F)(F)F)cc1CN1CCC[C@H]1C(=O)O` [Z-92], for which the half-inhibitory concentration (IC50) at PD-1/PD-L1 amounted to 1 nM. In assay [1], this molecule returned an EC50 of 6 nM.
At PD-1/PD-L1, `COc1cc(/C=C/c2cccc(-c3cccc(NC(=O)c4ccc(CN5CC[C@@H](O)C5)cn4)c3Cl)c2Cl)c(C(F)(F)F)cc1CN1CC[C@@H](C(=O)O)C1` [Z-93] gave a half-inhibitory concentration (IC50) of 2 nM. The molecule also gave an EC50 in assay [1] of 8 nM.
In the case of `COc1cc(/C=C/c2cccc(-c3cccc(NC(=O)c4ccc(CN5CC[C@@H](O)C5)cn4)c3C)c2C#N)c(C(F)(F)F)cc1CN1CC[C@@H](C(=O)O)C1` [Z-94], on PD-1/PD-L1, the IC50 came to 1 nM. The EC50 in assay [1] is 10 nM.
On the same counts, the results for `COc1cc(/C=C/c2cccc(-c3cccc(NC(=O)c4ccc(CN5CC[C@@H](O)C5)cn4)c3Cl)c2C#N)c(C(F)(F)F)cc1CN1CC[C@@H](C(=O)O)C1` [Z-95] are less than 1 nM and 4 nM.
`COc1cc(/C=C/c2cccc(-c3cccc(NC(=O)c4ccc(CN5CC[C@@H](O)C5)cn4)c3F)c2Cl)c(C(F)(F)F)cc1CN1CC[C@@H](C(=O)O)C1` [Z-96] displayed an IC50 at PD-1/PD-L1 of less than 1 nM. The molecule also displayed a half-maximal effective concentration (EC50) in assay [1] of 10 nM.
In turn, `COc1cc(/C=C/c2cccc(-c3cccc(NC(=O)c4ccc(CN5CC[C@@H](O)C5)cn4)c3C)c2C)c(C(F)(F)F)cc1CN1CC[C@H](C(=O)O)C1` [Z-97] gave an IC50 on PD-1/PD-L1 of less than 1 nM. Further, the concentration giving a half-maximal response (EC50) in assay [1] came out at 2 nM.
The molecule `COc1cc(/C=C/c2cccc(-c3cccc(NC(=O)c4ccc(CN5CC[C@@H](O)C5)cn4)c3C(F)(F)F)c2C#N)c(C(F)(F)F)cc1CN1CC[C@@H](C(=O)O)C1` [Z-98] came in with a half-maximal inhibitory concentration (IC50) on PD-1/PD-L1 of 2 nM. The same molecule came in with an EC50 in assay [1] of 174 nM.
`COc1cc(/C=C/c2cccc(-c3cccc(NC(=O)c4ccc(CN5CC[C@@H](O)C5)cn4)c3Cl)c2F)c(C(F)(F)F)cc1CN1CC[C@@H](C(=O)O)C1` [Z-99] gave a half-inhibitory concentration (IC50) on PD-1/PD-L1 of less than 1 nM. The same molecule yielded an EC50 in assay [1] of 35 nM.
The corresponding values for `Cc1cc(/C=C/c2nccc(-c3cccc(NC(=O)c4ccc(CN5CC[C@@H](O)C5)cn4)c3C)c2C#N)c(C(F)(F)F)cc1CN1CC[C@@H](C(=O)O)C1` [Z-101] are 1 nM and 122 nM.
Take `COc1cc(/C=C/c2cccc(-c3cccc(NC(=O)c4ccc(CN5CC[C@@H](O)C5)cn4)c3C)c2C)c(C(F)(F)F)cc1CN1CCCC[C@H]1C(=O)O` [Z-102]: at PD-1/PD-L1, the IC50 was 1 nM. Also, it took 9 nM to reach a half-maximal effect in assay [1] (EC50).
The corresponding values for `COc1cc(/C=C/c2cccc(-c3cccc(NC(=O)c4ccc(CN5CC[C@@H](O)C5)cn4)c3C)c2C)c(C(F)(F)F)cc1CN1CCC(C)(C(=O)O)C1` (some centres unmarked) [Z-103] are 1 nM and 19 nM.
On the same counts, the results for `COc1cc(/C=C/c2cccc(-c3cccc(NC(=O)c4ccc(CN5CC[C@@H](O)C5)cn4)c3C#N)c2C)c(C(F)(F)F)cc1CN1CC[C@@H](C(=O)O)C1` [Z-105] are 1 nM and 14 nM.
The corresponding values for `COc1cc(/C=C/c2cccc(-c3cccc(NC(=O)c4ccc(CN5CC[C@@H](O)C5)cn4)c3C)c2C)c(C(F)(F)F)cc1CN1CCCC(C(=O)O)C1` (some centres unmarked) [Z-106] are 1 nM and 20 nM.
For the molecule `COc1cc(/C=C/c2cccc(-c3cccc(NC(=O)c4ccc(CN5CC[C@@H](O)C5)cn4)c3Cl)c2C)c(C(F)(F)F)cc1CNC[C@@H](O)CC(=O)O` [Z-107], the IC50 at PD-1/PD-L1 stood at 1 nM. In assay [1], this molecule returned a concentration for a half-maximal effect (EC50) of 16 nM.
The corresponding values for `COc1cc(/C=C/c2cccc(-c3cccc(NC(=O)c4nc5c(n4C)CCN(C)C5)c3Cl)c2C)c(C(F)(F)F)cc1CN1CCCC[C@H]1C(=O)O` [Z-108, (S,E)-1-(4-(2-(2′-chloro-3′-(1,5-dimethyl-4,5,6,7-tetrahydro-1H-imidazo[4,5-c]pyridine-2-carboxamido)-2-methyl-[1,1′-biphenyl]-3-yl)vinyl)-2-methoxy-5-(trifluoromethyl)benzyl)piperidine-2-carboxylic Acid] are 2 nM and 57 nM.
At PD-1/PD-L1, `COc1cc(/C=C/c2cccc(-c3cccc(NC(=O)c4ccc(CNCCS(C)(=N)=O)cn4)c3C)c2C)c(C(F)(F)F)cc1CN1CC[C@@H](C(=O)O)C1` (stereo partly drawn) [Z-109, (3R)-1-(4-((E)-2-(2,2′-dimethyl-3′-(5-(((2-(S-methylsulfonimidoyl)ethyl)amino)methyl)picolinamido)-[1,1′-biphenyl]-3-yl)vinyl)-2-methoxy-5-(trifluoromethyl)benzyl)pyrrolidine-3-carboxylic Acid] gave a 50% inhibitory concentration (IC50) of 1 nM. Further, the concentration giving a half-maximal response (EC50) in assay [1] amounted to 121 nM.
`COc1cc(/C=C/c2cccc(-c3cccc(NC(=O)c4ccc(CNC[C@@H]5CCC(=O)N5)cn4)c3C)c2C)c(C(F)(F)F)cc1CN1CC[C@@H](C(=O)O)C1` [Z-110, (R)-1-(4-((E)-2-(2,2′-dimethyl-3′-(5-(((((S)-5-oxopyrrolidin-2-yl)methyl)amino)methyl)picolinamido)-[1,1′-biphenyl]-3-yl)vinyl)-2-methoxy-5-(trifluoromethyl)benzyl)pyrrolidine-3-carboxylic Acid] had an IC50 at PD-1/PD-L1 of 1 nM. In assay [1], this molecule showed a concentration giving a half-maximal response (EC50) of 153 nM.
